Measured values from ChEMBL document CHEMBL3044870, “Effect of clomazone on various market classes of dry beans” (Crop Prot, 2007).

Key:
Format in all cases: organism-based
Details in all cases: in vivo, other
Phaseolus vulgaris [1] = experiment: Phytotoxicity against Phaseolus vulgaris (yellow eye beans) assessed as visual crop injury at 2232 g a.i./ha applied pre-emergence 1 to 2 days post-planting measured on day 14 post-emergence relative to control
Phaseolus vulgaris [2] = experiment: Phytotoxicity against Phaseolus vulgaris (cranberry beans) assessed as shoot dry weight at 1116 g a.i./ha applied pre-emergence 1 to 2 days post-planting measured on day 42 post-emergence (reference value: 161 g/m)
Phaseolus vulgaris [3] = experiment: Phytotoxicity against Phaseolus vulgaris (dry beans) assessed as visual crop injury at 2232 g a.i./ha applied pre-emergence 1 to 2 days post-planting measured on day 28 post-emergence relative to control
Phaseolus vulgaris [4] = experiment: Phytotoxicity against Phaseolus vulgaris (pinto beans) assessed as plant height at 2232 g a.i./ha applied pre-emergence 1 to 2 days post-planting measured on day 28 post-emergence (reference value: 38 cm)
Phaseolus vulgaris [5] = experiment: Phytotoxicity against Phaseolus vulgaris (white beans) assessed as plant height at 2232 g a.i./ha applied pre-emergence 1 to 2 days post-planting measured on day 28 post-emergence (reference value: 36 cm)
Phaseolus vulgaris [6] = experiment: Phytotoxicity against Phaseolus vulgaris (kidney beans) assessed as visual crop injury at 1116 g a.i./ha applied pre-emergence 1 to 2 days post-planting measured on day 14 post-emergence relative to control
Phaseolus vulgaris [7] = experiment: Phytotoxicity against Phaseolus vulgaris (white beans) assessed as plant height at 1116 g a.i./ha applied pre-emergence 1 to 2 days post-planting measured on day 28 post-emergence (reference value: 36 cm)
Phaseolus vulgaris [8] = experiment: Phytotoxicity against Phaseolus vulgaris (pinto beans) assessed as plant height at 1116 g a.i./ha applied pre-emergence 1 to 2 days post-planting measured on day 28 post-emergence (reference value: 38 cm)
Phaseolus vulgaris [9] = experiment: Phytotoxicity against Phaseolus vulgaris (otebo beans) assessed as shoot dry weight at 2232 g a.i./ha applied pre-emergence 1 to 2 days post-planting measured on day 42 post-emergence (reference value: 188 g/m)
Phaseolus vulgaris [10] = experiment: Phytotoxicity against Phaseolus vulgaris (brown beans) assessed as yield at 1116 g a.i./ha applied pre-emergence 1 to 2 days post-planting measured on day 42 post-emergence (reference value: 2.5 tons/ha)
Phaseolus vulgaris [11] = experiment: Phytotoxicity against Phaseolus vulgaris (otebo beans) assessed as plant height at 1116 g a.i./ha applied pre-emergence 1 to 2 days post-planting measured on day 28 post-emergence (reference value: 38 cm)
Phaseolus vulgaris [12] = experiment: Phytotoxicity against Phaseolus vulgaris (yellow eye beans) assessed as yield at 2232 g a.i./ha applied pre-emergence 1 to 2 days post-planting measured on day 42 post-emergence (reference value: 2.3 tons/ha)
Phaseolus vulgaris [13] = experiment: Phytotoxicity against Phaseolus vulgaris (black beans) assessed as yield at 2232 g a.i./ha applied pre-emergence 1 to 2 days post-planting measured on day 42 post-emergence (reference value: 3.6 tons/ha)
Phaseolus vulgaris [14] = experiment: Phytotoxicity against Phaseolus vulgaris (white beans) assessed as shoot dry weight at 2232 g a.i./ha applied pre-emergence 1 to 2 days post-planting measured on day 42 post-emergence (reference value: 175 g/m)
Phaseolus vulgaris [15] = experiment: Phytotoxicity against Phaseolus vulgaris (black beans) assessed as yield at 1116 g a.i./ha applied pre-emergence 1 to 2 days post-planting measured on day 42 post-emergence (reference value: 3.6 tons/ha)
Phaseolus vulgaris [16] = experiment: Phytotoxicity against Phaseolus vulgaris (dry beans) assessed as change in seed moisture content at 1116 to 2232 g a.i./ha applied pre-emergence 1 to 2 days post-planting relative to control
Phaseolus vulgaris [17] = experiment: Phytotoxicity against Phaseolus vulgaris (kidney beans) assessed as shoot dry weight at 2232 g a.i./ha applied pre-emergence 1 to 2 days post-planting measured on day 42 post-emergence (reference value: 145 g/m)
Phaseolus vulgaris [18] = experiment: Phytotoxicity against Phaseolus vulgaris (otebo beans) assessed as visual crop injury at 2232 g a.i./ha applied pre-emergence 1 to 2 days post-planting measured on day 14 post-emergence relative to control
Phaseolus vulgaris [19] = experiment: Phytotoxicity against Phaseolus vulgaris (black beans) assessed as plant height at 1116 g a.i./ha applied pre-emergence 1 to 2 days post-planting measured on day 28 post-emergence (reference value: 34 cm)
Phaseolus vulgaris [20] = experiment: Phytotoxicity against Phaseolus vulgaris (pinto beans) assessed as visual crop injury at 2232 g a.i./ha applied pre-emergence 1 to 2 days post-planting measured on day 14 post-emergence relative to control
Phaseolus vulgaris [21] = experiment: Phytotoxicity against Phaseolus vulgaris (yellow eye beans) assessed as shoot dry weight at 1116 g a.i./ha applied pre-emergence 1 to 2 days post-planting measured on day 42 post-emergence (reference value: 162 g/m)
Phaseolus vulgaris [22] = experiment: Phytotoxicity against Phaseolus vulgaris (black beans) assessed as plant height at 2232 g a.i./ha applied pre-emergence 1 to 2 days post-planting measured on day 28 post-emergence (reference value: 34 cm)
Phaseolus vulgaris [23] = experiment: Phytotoxicity against Phaseolus vulgaris (kidney beans) assessed as plant height at 2232 g a.i./ha applied pre-emergence 1 to 2 days post-planting measured on day 28 post-emergence (reference value: 37 cm)
Phaseolus vulgaris [24] = experiment: Phytotoxicity against Phaseolus vulgaris (cranberry beans) assessed as yield at 1116 g a.i./ha applied pre-emergence 1 to 2 days post-planting measured on day 42 post-emergence (reference value: 3.1 tons/ha)
Phaseolus vulgaris [25] = experiment: Phytotoxicity against Phaseolus vulgaris (cranberry beans) assessed as visual crop injury at 2232 g a.i./ha applied pre-emergence 1 to 2 days post-planting measured on day 14 post-emergence relative to control
Phaseolus vulgaris [26] = experiment: Phytotoxicity against Phaseolus vulgaris (cranberry beans) assessed as shoot dry weight at 2232 g a.i./ha applied pre-emergence 1 to 2 days post-planting measured on day 42 post-emergence (reference value: 161 g/m)
Phaseolus vulgaris [27] = experiment: Phytotoxicity against Phaseolus vulgaris (otebo beans) assessed as visual crop injury at 1116 g a.i./ha applied pre-emergence 1 to 2 days post-planting measured on day 14 post-emergence relative to control
Phaseolus vulgaris [28] = experiment: Phytotoxicity against Phaseolus vulgaris (black beans) assessed as shoot dry weight at 1116 g a.i./ha applied pre-emergence 1 to 2 days post-planting measured on day 42 post-emergence (reference value: 165 g/m)
Phaseolus vulgaris [29] = experiment: Phytotoxicity against Phaseolus vulgaris (cranberry beans) assessed as plant height at 1116 g a.i./ha applied pre-emergence 1 to 2 days post-planting measured on day 28 post-emergence (reference value: 37 cm)
Phaseolus vulgaris [30] = experiment: Phytotoxicity against Phaseolus vulgaris (dry beans) assessed as visual crop injury at 1116 g a.i./ha applied pre-emergence 1 to 2 days post-planting measured on day 7 post-emergence relative to control
Phaseolus vulgaris [31] = experiment: Phytotoxicity against Phaseolus vulgaris (brown beans) assessed as plant height at 1116 g a.i./ha applied pre-emergence 1 to 2 days post-planting measured on day 28 post-emergence (reference value: 37 cm)
Phaseolus vulgaris [32] = experiment: Phytotoxicity against Phaseolus vulgaris (black beans) assessed as visual crop injury at 1116 g a.i./ha applied pre-emergence 1 to 2 days post-planting measured on day 14 post-emergence relative to control

## CC1(C)CON(Cc2ccccc2Cl)C1=O [CLOMAZONE]
Phaseolus vulgaris [1]
  Activity: 10%
Phaseolus vulgaris [2]
  Activity: 150 g/m
Phaseolus vulgaris [3]
  Activity: 4%
Phaseolus vulgaris [4]
  Activity: 32 cm
Phaseolus vulgaris [5]
  Activity: 32 cm
Phaseolus vulgaris [6]
  Activity: 5%
Phaseolus vulgaris [7]
  Activity: 34 cm
Phaseolus vulgaris [8]
  Activity: 36 cm
Phaseolus vulgaris [9]
  Activity: 168 g/m
Phaseolus vulgaris [10]
  Crop_yield: 2.6 tons/ha
Phaseolus vulgaris [11]
  Activity: 37 cm
Phaseolus vulgaris [12]
  Crop_yield: 2.5 tons/ha
Phaseolus vulgaris [13]
  Crop_yield: 3.3 tons/ha
Phaseolus vulgaris [14]
  Activity: 154 g/m
Phaseolus vulgaris [15]
  Crop_yield: 3.3 tons/ha
Phaseolus vulgaris [16]
  Activity: Non-toxic
Phaseolus vulgaris [17]
  Activity: 116 g/m
Phaseolus vulgaris [18]
  Activity: 11%
Phaseolus vulgaris [19]
  Activity: 34 cm
Phaseolus vulgaris [20]
  Activity: 11%
Phaseolus vulgaris [21]
  Activity: 160 g/m
Phaseolus vulgaris [22]
  Activity: 30 cm
Phaseolus vulgaris [23]
  Activity: 33 cm
Phaseolus vulgaris [24]
  Crop_yield: 3.2 tons/ha
Phaseolus vulgaris [25]
  Activity: 14%
Phaseolus vulgaris [26]
  Activity: 137 g/m
Phaseolus vulgaris [27]
  Activity: 3%
Phaseolus vulgaris [28]
  Activity: 167 g/m
Phaseolus vulgaris [29]
  Activity: 35 cm
Phaseolus vulgaris [30]
  Activity: 5%
Phaseolus vulgaris [31]
  Activity: 35 cm
Phaseolus vulgaris [32]
  Activity: 3%
